Earlier results as cited in patent US11857677B2, “Ready to use injectable formulations of melphalan and processes for preparation thereof” (RK Pharma Solutions LLC, priority 2019, dated 2024).

Which Solubility in water does the source give for `N[C@@H](Cc1ccc(N(CCCl)CCCl)cc1)C(=O)O` [Melphalan, 4-[bis(2-chloroethyl)amino]-L-phenylalanine] here?
The Solubility in water was “practically insoluble”.
